Each cell line was assayed with N[C@@H]1CCCN(c2c(/C=C3\SC(=O)NC3=O)cccc2-c2ccccc2)C1 [AZD1208] + CS(=O)(=O)CCNCc1ccc(-c2ccc3ncnc(Nc4ccc(OCc5cccc(F)c5)c(Cl)c4)c3c2)o1 [Lapatinib] (partner 2 µM) (assay: relative viability (nuclei count vs DMSO), 5 days (fraction); higher = more cells survive). Details: first compound 0.08 µM.
In short: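 A single step with final 0.05% Triton X-100, 1% formaldehyde and 1 ug/ml Hoechst fixed the cells and stained nuclei 5 days after treatment. Lung cancer cell lines in 1536-well plates had been treated by pin tool the day after seeding with one drug alone or a fixed anchor-drug dose plus five library-drug doses (not always all listed) in √10 steps, and nuclei were counted on 4× images. Relative viability is the ratio of nuclei in treated wells to nuclei in vehicle wells, taken as the median of duplicate plates.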

| Cell Line | relative viability |
| --- | --- |
| Calu-6 | 1.04 |
| HCC-366 | 1.06 |
| NCI-H1666 | 0.442 |
| NCI-H647 | 1.04 |
| LK-2 | 0.738 |
| NCI-H2126 | 0.796 |
| SK-MES-1 | 0.407 |
| H3255 | 0.258 |
| COR-L23 | 0.991 |
| COR-L 105 | 0.366 |
| IA-LM | 0.766 |
| LOU-NH91 | 0.727 |
| NCI-H2170 | 0.263 |
| NCI-H3122 | 1.08 |
| HOP-62 | 1.14 |
| HCC-44 | 1.01 |
| A549 | 0.899 |
| LU99A | 0.864 |

| Cell Line | relative viability |
| --- | --- |
| BEN | 0.677 |
| HARA | 0.727 |
| HCC-78 | 0.779 |
| LCLC-97TM1 | 1.03 |
| NCI-H2023 | 0.757 |
| A-427 | 1.11 |
| NCI-H460 | 1.03 |
| NCI-H727 | 0.597 |
| NCI-H1734 | 1.01 |
| NCI-H520 | 0.805 |
| NCI-H2405 | 1.12 |
| SW 1573 | 1.02 |
| NCI-H1395 | 1.12 |
| 201T | 1.03 |
| NCI-H1915 | 0.985 |
| HCC-827 | 0.15 |
| LXF-289 | 0.941 |

Same assay, conditions: first compound 0.253 µM

| Cell Line | relative viability |
| --- | --- |
| Calu-6 | 1.19 |
| HCC-366 | 1.17 |
| NCI-H1666 | 0.574 |
| NCI-H647 | 1.58 |
| LK-2 | 0.616 |
| NCI-H2126 | 0.689 |
| SK-MES-1 | 0.418 |
| H3255 | 0.231 |
| COR-L23 | 1.18 |
| COR-L 105 | 0.334 |
| IA-LM | 0.948 |
| LOU-NH91 | 0.704 |
| NCI-H2170 | 0.257 |
| NCI-H3122 | 0.984 |
| HOP-62 | 1.05 |
| HCC-44 | 0.987 |
| A549 | 0.921 |
| LU99A | 0.985 |

| Cell Line | relative viability |
| --- | --- |
| BEN | 0.449 |
| HARA | 0.61 |
| HCC-78 | 0.888 |
| LCLC-97TM1 | 0.92 |
| NCI-H2023 | 0.903 |
| A-427 | 0.988 |
| NCI-H460 | 1.71 |
| NCI-H727 | 0.754 |
| NCI-H1734 | 1.06 |
| NCI-H520 | 1.07 |
| NCI-H2405 | 1.05 |
| SW 1573 | 1.07 |
| NCI-H1395 | 0.918 |
| 201T | 0.992 |
| NCI-H1915 | 1.08 |
| HCC-827 | 0.192 |
| LXF-289 | 0.954 |

Same assay, conditions: first compound 0.8 µM

| Cell Line | relative viability |
| --- | --- |
| Calu-6 | 1.04 |
| HCC-366 | 0.951 |
| NCI-H1666 | 0.452 |
| NCI-H647 | 1.04 |
| LK-2 | 0.63 |
| NCI-H2126 | 0.63 |
| SK-MES-1 | 0.421 |
| H3255 | 0.225 |
| COR-L23 | 0.942 |
| COR-L 105 | 0.299 |
| IA-LM | 0.766 |
| LOU-NH91 | 0.662 |
| NCI-H2170 | 0.257 |
| NCI-H3122 | 1 |
| HOP-62 | 0.985 |
| HCC-44 | 1.06 |
| A549 | 0.859 |

| Cell Line | relative viability |
| --- | --- |
| LU99A | 0.937 |
| BEN | 0.524 |
| HARA | 0.686 |
| HCC-78 | 0.621 |
| NCI-H2023 | 0.68 |
| A-427 | 0.843 |
| NCI-H460 | 0.867 |
| NCI-H727 | 0.755 |
| NCI-H1734 | 1.01 |
| NCI-H520 | 0.806 |
| NCI-H2405 | 0.984 |
| SW 1573 | 0.959 |
| NCI-H1395 | 0.945 |
| 201T | 1.04 |
| NCI-H1915 | 1.02 |
| HCC-827 | 0.189 |
| LXF-289 | 0.917 |

Same assay, conditions: first compound 2.53 µM

| Cell Line | relative viability |
| --- | --- |
| Calu-6 | 1.08 |
| HCC-366 | 1.13 |
| NCI-H1666 | 0.389 |
| NCI-H647 | 0.97 |
| LK-2 | 0.39 |
| NCI-H2126 | 0.691 |
| SK-MES-1 | 0.415 |
| H3255 | 0.219 |
| COR-L23 | 1.02 |
| COR-L 105 | 0.29 |
| IA-LM | 0.621 |
| LOU-NH91 | 0.703 |
| NCI-H2170 | 0.265 |
| NCI-H3122 | 1.05 |
| HOP-62 | 0.875 |
| HCC-44 | 0.999 |
| A549 | 0.828 |
| LU99A | 0.919 |

| Cell Line | relative viability |
| --- | --- |
| BEN | 0.568 |
| HARA | 0.737 |
| HCC-78 | 0.845 |
| LCLC-97TM1 | 0.882 |
| NCI-H2023 | 0.668 |
| A-427 | 1.15 |
| NCI-H460 | 1.01 |
| NCI-H727 | 0.672 |
| NCI-H1734 | 0.822 |
| NCI-H520 | 0.83 |
| NCI-H2405 | 1.04 |
| SW 1573 | 1.01 |
| NCI-H1395 | 1.1 |
| 201T | 1.08 |
| NCI-H1915 | 0.962 |
| HCC-827 | 0.173 |
| LXF-289 | 0.958 |

Same assay, conditions: first compound 8 µM

| Cell Line | relative viability |
| --- | --- |
| Calu-6 | 1.03 |
| HCC-366 | 0.933 |
| NCI-H1666 | 0.456 |
| NCI-H647 | 0.742 |
| LK-2 | 0.447 |
| NCI-H2126 | 0.525 |
| SK-MES-1 | 0.374 |
| H3255 | 0.22 |
| COR-L23 | 0.916 |
| COR-L 105 | 0.36 |
| IA-LM | 0.633 |
| LOU-NH91 | 0.583 |
| NCI-H2170 | 0.299 |
| NCI-H3122 | 1.15 |
| HOP-62 | 0.889 |
| HCC-44 | 0.947 |
| A549 | 0.721 |
| LU99A | 0.728 |

Source: the supplement of paper PMC10307832
